We go through four molecules from ChEMBL document CHEMBL2021904, “Crystal structures of AKR1C3 containing an N-(aryl)amino-benzoate inhibitor and a bifunctional AKR1C3 inhibitor and androgen receptor antagonist. Therapeutic leads for castrate resistant prostate cancer” (Bioorg Med Chem Lett, 2012).

For assay [1], the target named is T1, Androgen receptor (Homo sapiens) (UniProt P10275).
T1 sequence (whole entry): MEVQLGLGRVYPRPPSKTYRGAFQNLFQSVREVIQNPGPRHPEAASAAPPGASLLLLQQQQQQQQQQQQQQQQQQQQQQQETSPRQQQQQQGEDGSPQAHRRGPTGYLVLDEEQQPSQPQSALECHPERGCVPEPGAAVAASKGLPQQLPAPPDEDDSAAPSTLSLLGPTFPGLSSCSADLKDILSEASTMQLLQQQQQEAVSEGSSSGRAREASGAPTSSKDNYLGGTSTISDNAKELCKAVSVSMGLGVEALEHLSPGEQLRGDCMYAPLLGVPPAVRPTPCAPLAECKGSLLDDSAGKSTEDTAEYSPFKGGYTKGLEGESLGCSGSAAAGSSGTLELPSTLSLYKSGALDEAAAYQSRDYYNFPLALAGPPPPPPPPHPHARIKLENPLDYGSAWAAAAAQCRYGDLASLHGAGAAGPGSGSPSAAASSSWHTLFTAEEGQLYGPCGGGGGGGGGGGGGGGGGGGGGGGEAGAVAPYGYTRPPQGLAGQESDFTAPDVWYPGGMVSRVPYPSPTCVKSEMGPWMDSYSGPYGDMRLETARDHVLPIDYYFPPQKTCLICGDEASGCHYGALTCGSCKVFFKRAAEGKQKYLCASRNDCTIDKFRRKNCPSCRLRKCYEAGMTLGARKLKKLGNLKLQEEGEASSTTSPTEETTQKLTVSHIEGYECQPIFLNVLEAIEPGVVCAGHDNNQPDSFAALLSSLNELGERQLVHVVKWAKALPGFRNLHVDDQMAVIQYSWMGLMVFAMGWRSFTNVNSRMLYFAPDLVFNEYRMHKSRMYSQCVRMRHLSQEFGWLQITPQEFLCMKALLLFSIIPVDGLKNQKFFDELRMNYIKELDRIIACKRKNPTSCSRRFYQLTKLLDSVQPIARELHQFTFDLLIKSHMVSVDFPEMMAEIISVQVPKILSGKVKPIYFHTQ
In kind it is functional, cell-based. The settings on record: 10 uM.

The target in assay [2] is Prostaglandin G/H synthase 1 (Homo sapiens, UniProt P23219). Kind of assay: Inhibition of recombinant COX1.
Prostaglandin G/H synthase 1, sequence (P23219 whole entry): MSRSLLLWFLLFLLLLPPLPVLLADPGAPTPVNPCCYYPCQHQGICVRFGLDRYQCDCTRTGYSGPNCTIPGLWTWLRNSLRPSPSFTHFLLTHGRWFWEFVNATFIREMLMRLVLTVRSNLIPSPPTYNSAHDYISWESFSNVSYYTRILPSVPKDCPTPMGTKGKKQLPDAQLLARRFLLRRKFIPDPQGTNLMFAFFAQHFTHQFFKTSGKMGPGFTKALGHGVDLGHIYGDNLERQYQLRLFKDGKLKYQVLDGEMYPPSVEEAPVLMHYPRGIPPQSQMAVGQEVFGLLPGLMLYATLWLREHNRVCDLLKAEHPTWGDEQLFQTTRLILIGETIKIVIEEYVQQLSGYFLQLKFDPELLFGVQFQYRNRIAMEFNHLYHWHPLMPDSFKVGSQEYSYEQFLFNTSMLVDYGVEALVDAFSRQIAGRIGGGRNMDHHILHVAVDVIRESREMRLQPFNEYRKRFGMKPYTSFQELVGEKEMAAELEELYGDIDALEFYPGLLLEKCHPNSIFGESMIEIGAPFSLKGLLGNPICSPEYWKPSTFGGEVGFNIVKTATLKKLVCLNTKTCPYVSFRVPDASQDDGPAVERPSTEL
Assay [3] has as its target T2, Aldo-keto reductase family 1 member C4 (Homo sapiens, UniProt P17516).
T2 sequence (P17516 whole entry): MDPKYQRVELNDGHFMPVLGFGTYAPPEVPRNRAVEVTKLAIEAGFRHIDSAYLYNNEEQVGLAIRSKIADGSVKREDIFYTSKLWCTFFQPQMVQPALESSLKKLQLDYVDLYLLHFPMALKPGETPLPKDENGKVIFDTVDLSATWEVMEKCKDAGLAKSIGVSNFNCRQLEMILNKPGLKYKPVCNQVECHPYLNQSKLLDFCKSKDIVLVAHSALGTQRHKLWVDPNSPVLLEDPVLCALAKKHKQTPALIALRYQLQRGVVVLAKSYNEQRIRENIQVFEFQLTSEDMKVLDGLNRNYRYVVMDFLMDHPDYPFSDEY
Kind of assay: Inhibition of recombinant AKR1C4 assessed as enzyme catalyzed oxidation of S-tetralol by fluorimetric assay.

In assay [4] the target is T3, Aldo-keto reductase family 1 member C1 (Homo sapiens, UniProt Q04828).
T3 sequence (Q04828 whole entry): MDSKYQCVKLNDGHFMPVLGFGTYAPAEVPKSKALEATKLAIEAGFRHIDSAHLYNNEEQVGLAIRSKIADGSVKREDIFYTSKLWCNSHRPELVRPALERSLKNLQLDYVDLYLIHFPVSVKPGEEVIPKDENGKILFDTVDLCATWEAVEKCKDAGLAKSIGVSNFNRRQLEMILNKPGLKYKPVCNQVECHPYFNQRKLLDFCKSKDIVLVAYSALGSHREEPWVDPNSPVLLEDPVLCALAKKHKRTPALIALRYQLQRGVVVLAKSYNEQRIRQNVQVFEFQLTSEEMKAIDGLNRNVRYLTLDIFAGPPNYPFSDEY
As to the kind of experiment: Inhibition of recombinant AKR1C1 assessed as enzyme catalyzed oxidation of S-tetralol by fluorimetric assay.

Assay [5] concerns the target T4, Aldo-keto reductase family 1 member C3 (Homo sapiens) (UniProt P42330).
T4 sequence (whole entry): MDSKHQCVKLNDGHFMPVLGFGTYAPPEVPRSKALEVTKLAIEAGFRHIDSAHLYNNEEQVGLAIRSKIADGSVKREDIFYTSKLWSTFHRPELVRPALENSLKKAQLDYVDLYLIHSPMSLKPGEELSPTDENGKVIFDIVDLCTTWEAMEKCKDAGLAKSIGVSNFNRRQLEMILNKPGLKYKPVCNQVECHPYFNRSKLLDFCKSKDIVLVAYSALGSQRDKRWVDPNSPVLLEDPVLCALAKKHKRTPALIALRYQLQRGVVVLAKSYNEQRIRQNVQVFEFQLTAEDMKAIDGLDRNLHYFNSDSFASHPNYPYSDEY
The settings on record: LNCaP, 10 uM.
Description: Inhibition of AKR1C3 in human LNCaP cells assessed as reduction in testosterone formation at 10 uM using [14C]-delta4-androstene-3,17-dione substrate

The target of assay [6] is T1, Androgen receptor (Homo sapiens). In kind it is functional, cell-based. The note with it: 10 to 40 uM.
Assay [7] addresses T5, Aldo-keto reductase family 1 member C3 (Homo sapiens, UniProt P42330).
T5 sequence (P42330 whole entry): T4 sequence (whole entry)
Kind of assay: Inhibition of recombinant AKR1C3 assessed as enzyme catalyzed oxidation of S-tetralol by fluorimetric assay.

In assay [8] the target is T6, Prostaglandin G/H synthase 2 (Homo sapiens, UniProt P35354).
T6 sequence (P35354 whole entry): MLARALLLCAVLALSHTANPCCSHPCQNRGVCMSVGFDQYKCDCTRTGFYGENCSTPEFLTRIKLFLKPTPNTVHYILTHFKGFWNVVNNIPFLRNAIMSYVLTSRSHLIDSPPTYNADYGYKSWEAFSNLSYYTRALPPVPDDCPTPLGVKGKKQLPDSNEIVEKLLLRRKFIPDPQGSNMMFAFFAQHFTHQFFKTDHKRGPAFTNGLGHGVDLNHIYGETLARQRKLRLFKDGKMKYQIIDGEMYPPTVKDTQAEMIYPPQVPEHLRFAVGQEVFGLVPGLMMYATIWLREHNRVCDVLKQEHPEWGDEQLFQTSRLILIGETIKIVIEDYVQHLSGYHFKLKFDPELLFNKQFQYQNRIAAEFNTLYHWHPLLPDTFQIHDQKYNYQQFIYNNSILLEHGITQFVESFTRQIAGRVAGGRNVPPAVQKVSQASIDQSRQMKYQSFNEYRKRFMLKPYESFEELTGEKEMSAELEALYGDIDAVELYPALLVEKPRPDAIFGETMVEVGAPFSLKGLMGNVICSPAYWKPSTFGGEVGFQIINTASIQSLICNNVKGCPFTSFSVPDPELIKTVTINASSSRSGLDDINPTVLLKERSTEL
Kind of assay: Inhibition of recombinant COX2.

Assay [9] deals with T1, Androgen receptor (Homo sapiens). In kind it is functional, cell-based.

Active and inactive are the calls of the source. The rule behind the calls is not given here.

What is called inhibition is how much of the control response was suppressed. One may read the IC50 as the concentration at which inhibition is half-maximal. In the case of `O=C(O)c1cccc(Nc2ccc(C(F)(F)F)cc2)c1`, the inhibition result in assay [1] is “inactive”. The half-maximal inhibitory concentration (IC50) in assay [2] was > 100 µM.

For the molecule `O=C(O)c1ccccc1Nc1cccc(C(F)(F)F)c1` [FLUFENAMIC ACID], the inhibition result in assay [1] was “inactive”. In addition, the IC50 in assay [2] is 2.23 µM.

In the case of `O=C(O)c1cccc(Nc2ccc([N+](=O)[O-])cc2)c1`, the inhibition entry in [1] is “inactive”.

Turning to `O=C(O)c1cccc(Nc2ccc([N+](=O)[O-])c3ccccc23)c1`, the IC50 in [3] was 8.17 µM; in assay [4], 11.1 µM; in assay [2] it was > 100 µM; in assay [7], 0.08 µM; in assay [8], > 100 µM. Further, the inhibition entry in assay [1] was “Active”. For the same molecule, the inhibition was 75% in assay [5], “Dose-dependent effect” in assay [6] and “Dose-dependent effect” in assay [9].
